Source: patent publication US20260001872A1, “BENZISOTHIAZOLE COMPOUND AND APPLICATION THEREOF, AND PHARMACEUTICAL COMPOSITION AND APPLICATION THEREOF” (Picomole Therapeutics (Liaoning) Co., Ltd., priority 2022, published 2026)
Several values for one entry are separate records, joined by “and”; a condition that tells them apart may be missing. Equal values may be shown once. Where a name gives a salt, the structure may show the parent alone.

Tests used:
[1] = tested on: premature ejaculation model in Wistar rats after PCA induction; test: premature ejaculation model in Wistar rats after PCA induction; type: in vivo; settings: for Actual ejaculation number / First contractive latency / First ejaculation latency / Seminal vesicle basal pressure (mmHg) / Seminal vesicle peak pressure (mmHg) / The number of seminal vesicle contractions: individual rats, within 30 min after PCA induction
Protocol: Male Wistar rats with body weight of about 300 g were subjected to a one-week acclimation period before the experiment began. On the day of the experiment, the animals were anesthetized with intraperitoneal (i.p.) injection of Zoletil 50 at 20 mg/kg combined with xylazine at 8 mg/kg, and then subjected to body temperature maintenance at 37° C. using a thermostatically controlled heating pad. The common carotid artery was exposed and cannulated with a PE50 catheter for real-time monitoring of arterial pressure (systolic blood pressure, diastolic blood pressure, and mean arterial pressure). The seminal vesicle and corpus cavernosum muscle of the animals were exposed. Seminal vesicle pressure and corpus cavernosum electromyographic (EMG) stabilized baseline were recorded for 10 min. In the dapoxetine group, the medications were administrated via tail vein intravenous (i.v.) injection; in the to-be-tested compound group, the to-be-tested compound was administrated orally (in the PE model group, the to-be-tested compound was substituted with vehicles); after 1 min, PCA (5 mg/kg) was intraperitoneally (i.p.) injected to induce the PE model; and recording of seminal vesicle pressure profiles and electromyographic (EMG) activity variations in the bulbocavernosus muscle continued to be performed for 30 min.
• A. The actual ejaculation number and the first ejaculation latency in animals within 30 min • B. The number of seminal vesicle contractions, the first contractive latency, basal pressure, and peak pressure within 30 min
The experimental data was represented by mean±S.E.M. and statistically analyzed by GraphPad Prism 7.0 software. One-way analysis of variance (One-way ANOVA) was used for comparison among multiple groups, and Dunnett't-test was used for statistical analysis in Post hoc test; and the comparison between two groups was statistically analyzed using Student's t-test. P<0.05 indicates a significant difference.

[2] = in vivo; cited from earlier work
[3] = 0.125 mg/kg p.o. + PCA 5 mg/kg i.p.
[4] = 0.5 mg/kg p.o. + PCA 5 mg/kg i.p.
[5] = 2 mg/kg p.o. + PCA 5 mg/kg i.p.
[6] = 2 mg/kg p.o. + PCA 5 mg/kg i.p., listed as A002
[7] = Dapoxetine 2 mg/kg i.v. + PCA 5 mg/kg i.p., hydrochloride
[8] = statistical analysis, PCA-induced model

c1ccc2nn(CCCCN3CCN(c4nsc5ccccc45)CC3)nc2c1 [A001]
Actual ejaculation number [1, 3]: 2 (2×) and 6 (2×) and 1
First contractive latency [1, 3]: 1278 s and 824 s and 889 s and 1207 s and 1558 s
First ejaculation latency [1, 3]: 1456 s and 916 s and 985 s and 1380 s and 1667 s
Seminal vesicle basal pressure (mmHg) [1, 3]: 5.79 mmHg and 6.18 mmHg and 6.05 mmHg and 4.78 mmHg and 3.89 mmHg
Seminal vesicle peak pressure (mmHg) [1, 3]: 13.46 mmHg and 16.77 mmHg and 20.06 mmHg and 11.05 mmHg and 9.81 mmHg
The number of seminal vesicle contractions [1, 3]: 5 and 9 and 8 and 4 and 3
Actual ejaculation number [1, 4]: 2 (3×) and 0 (2×)
First contractive latency [1, 4]: 1186 s and 1298 s and 1317 s and 1800 s (2×)
First ejaculation latency [1, 4]: 1256 s and 1382 s and 1477 s and 1800 s (2×)
Seminal vesicle basal pressure (mmHg) [1, 4]: 5.76 mmHg and 5.88 mmHg and 5.79 mmHg and 3.67 mmHg and 3.87 mmHg
Seminal vesicle peak pressure (mmHg) [1, 4]: 11.87 mmHg and 10.66 mmHg and 9.08 mmHg and 4.86 mmHg and 5.23 mmHg
The number of seminal vesicle contractions [1, 4]: 3 and 4 (2×) and 0 (2×)
Actual ejaculation number [1, 5]: 0
First ejaculation latency [1, 5]: 1800 s
First contractive latency [1, 6]: 1568 s and 1800 s (4×)
Seminal vesicle basal pressure (mmHg) [1, 6]: 4.05 mmHg and 4.17 mmHg and 4.86 mmHg and 4.18 mmHg and 3.88 mmHg
Seminal vesicle peak pressure (mmHg) [1, 6]: 9.67 mmHg and 6.04 mmHg and 5.18 mmHg and 4.98 mmHg and 5.05 mmHg
The number of seminal vesicle contractions [1, 6]: 2 and 0 (4×)

CN(C)[C@@H](CCOc1cccc2ccccc12)c1ccccc1 [Dapoxetine, Dapoxetine hydrochloride, reference compound]
bioavailability [2]: 42%
Actual ejaculation number [1, 7]: 1 (2×) and 0 (2×) and 2
First contractive latency [1, 7]: 1448 s and 1705 s and 1800 s and 1749 s and 866 s
First ejaculation latency [1, 7]: 1558 s and 1800 s (2×) and 1256 s and 967 s
Seminal vesicle basal pressure (mmHg) [1, 7]: 5.16 mmHg and 4.97 mmHg and 5.37 mmHg and 5.88 mmHg and 4.96 mmHg
Seminal vesicle peak pressure (mmHg) [1, 7]: 6.89 mmHg and 8.1 mmHg and 6.46 mmHg and 6.78 mmHg and 7.03 mmHg
The number of seminal vesicle contractions [1, 7]: 1 (3×) and 0 and 3
initial seminal vesicle contractive latency compared with the PE model group ([1]; P<0.01, P<0.001, FIG. 4): significant increase
contraction number of the corpus cavernosum muscle (conclusion) [1, 8]: decrease
ejaculation latency (conclusion) [1, 8]: effectively prolong
ejaculation number (conclusion) [1, 8]: significantly decrease
seminal vesicle pressure (conclusion) [1, 8]: reduce
